Results: patent US20230119479A1, “A HISTONE DEACETYLASE INHIBITOR HAVING A NITROGEN-CONTAINING AROMATIC HETEROCYCLYL GROUP” (SHIONOGI & CO., LTD., priority 2019, published 2023)

Key:
[1] = Platelet toxicity test using human blood progenitor cells (WST); format: cell-based; details: human bone marrow CD34+ progenitor cells, maximum concentration 25 μM
Method: Test Example 2: Platelet Toxicity Test Using Human Blood Progenitor Cells
Human bone marrow CD34+ progenitor cells (Lonza, 2M-101B) stored at −80° C. were thawed, spun down at 150 g for 10 minutes at 20° C., and a medium (StemSpan Expansion Supplement, STEM CELL TECHNOLOGIES, ST-02696) to which cytokines (StemSpan SFEM II, STEM CELL TECHNOLOGIES, ST-09655) was added was added to adjust to 2×10^4/well, the mixture was seeded in 12well non-coat dish (Corning, 3513), was incubated for 10 days at 37° C., 5% CO2. After 10 days, the cells were collected and spun down at 150 g for 10 minutes at 20° C., and a medium (StemSpan Expansion Supplement) containing cytokines (StemSpan SFEM II) was added so that the number of cells became 2×10^5 cells/ml. 50 μl of the cell suspension was seeded to each well of a 96-well plate (Corning, 3596) and allowed to stand overnight in an incubator at 37° C., 5% CO2. The next day, 50 μl of the test compound was treated to each well and allowed to stand for 48 hours in the incubator at 37° C., 5% CO2 (n=2). At this time, the test compound dissolved in 100% DMSO was serially diluted with DMSO at a 3-fold ratio, and then a medium containing cytokine was added to adjust the final concentration to 25, 8.33, 2.78, 0.93, 0.31, 0.1 μM. After that, 10 μl of WST (Cell count reagent SF, Nacalai Tesque Inc., 07553-44) was added to each well, and the mixture was allowed to stand in the incubator for 4 hours at 37° C., 5% CO2, and then the multi-label reader 2030 ARVO X4 (PerkinElmer) was used to measure the absorbance. At this time, the absorbance at 450 nm and the absorbance at 620 nm were obtained, and the difference between 450 nm and 620 nm was used as the measured value. The measured values were analyzed by Excel and TIBCO Spotfire, and IC50 values were calculated. At this time, for control (−), the well without cells was set as n=6 for one row, and the average value was calculated, and for control (+), the well in which DMSO was added to the cells so as to have the same concentration as the compound treatment group was set as n=6 for one row, and the average value was calculated and corrected for each plate. For the test compound, the average value of n=2 was used.

[2] = tested on: HDACs other than HDAC2 (HDAC2 knockout K562 cells); experiment: Evaluation of HDAC2 selectivity: H3K9 histone acetylation in HDAC2 knockout K562 cells (AlphaLISA); format: cell-based; details: Homo sapiens, maximum concentration 83.3 μM, 100% = SAHA-treated group, read-out: maximum inhibition rate (H3K9 histone acetylation);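 note: 0% inhibition equals DMSO-treated group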
Method: Test Example 3: Evaluation of HDAC2 Selectivity
K562 cells were cultured in RPMI1640 medium (SIGMA, R8758) containing 10% FBS (Hyclone, SH30070.03) and 1% penicillin streptomycin (Nacalai Tesque, 26252-94). CompoZr (registered trademark) Zinc Finger Nuclease (Merck) targeting HDAC2 sequences was transfected into K562 cells by electroporation using Nucleofector (Lonza). The cells after transfection were subjected to limiting dilution, and DNA sequencing was performed on the cell clones in which mutations were detected by the PCR method. Cell clones lacking a base number that was not a multiple of 3 in both alleles were identified, and a single-cell cloning was performed on the cell clones to produce HDAC2 knockout K562 cells. It was confirmed that the expression of HDAC2 was not detected by Western blotting in the prepared cells.
By evaluating the H3K9 histone acetylation-enhancing activity of the test compound using HDAC2 knockout K562 cells, the inhibitory activity against HDACs other than HDAC2 was evaluated.
HDAC2 knockout K562 cells stored in liquid nitrogen were thawed and cultured in RPMI1640 medium (Nacalai Tesque, 30264-85) for 2 to 4 days. Using Echo555 (Beckman Coulter), the test compound was dispensed to the assay plate (Corning, 4513) at 37.5 nL/well, and then HDAC2 knockout K562 cells were seeded to 125 cells/4.5 μL/well, and stirred. At this time, the test compound was treated at 8 points (n=2) in the 3-fold dilution series from the maximum concentration of 83.3 μM. After culturing at 37° C. and 5% CO2 overnight, 1.5 μL/well of Lysis buffer (PerkinElmer, AL009F1) was added, and after incubating at room temperature for 15 minutes, 3 μL/well of Extraction buffer (PerkinElmer, AL009F2) was added and the mixture was incubated for 10 minutes at room temperature. Then, 5× antibody solution (prepared by diluting anti-H3K9 Acceptor beads (PerkinElmer, AL114M) 75-fold with a detection buffer prepared by diluting 10×Cell-Histone Detection buffer (PerkinElmer, AL009F3) 10-fold with ultrapure water, and diluting Biotinylated anti H3 antibody (PerkinElmer, AL118M) diluted 150 times with the detection buffer) was added at 3 μL/well, and after incubating at room temperature for 60 minutes, then 5× donor beads solution (prepared by diluting Streptavidin Donor beads (PerkinElmer, 6760002) 75 fold with the detection buffer) was added at 3 μL/well, and the mixture was incubated again at room temperature for 60 minutes, and then the emission value was measured using PHERAstar (BMG LABTECH) (excitation=680 nm, […]). […] For cell toxicity, cell viability rate was evaluated by the PrestoBlue method.

[3] = Metabolism stability test; format: in vitro ADME; details: human liver microsomes 0.5 mg protein/mL, 30 minutes, 37° C., NADPH
Method: Using commercially available pooled human hepatic microsomes, a compound of the present invention is reacted for a constant time, and a remaining rate is calculated by comparing a reacted sample and an unreacted sample, thereby, a degree of metabolism in liver is assessed.
A reaction is performed (oxidative reaction) at 37° C. for 0 minute or 30 minutes in the presence of 1 mmol/L NADPH in 0.2 mL of a buffer (50 mmol/L Tris-HCl pH 7.4, 150 mmol/L potassium chloride, 10 mmol/L magnesium chloride) containing 0.5 mg protein/mL of human liver microsomes. After the reaction, 50 μL of the reaction solution is added to 100 μL of a methanol/acetonitrile=1/1 (v/v), mixed and centrifuged at 3000 rpm for 15 minutes. The compound of the present invention in the supernatant is quantified by LC/MS/MS or Solid Phase Extraction (SPE)/MS, and a remaining amount of the compound of the present invention after the reaction is calculated, letting a compound amount at 0 minute reaction time be 100%. The hydrolysis reaction is carried out in the absence of NADPH, and the glucuronidation reaction is carried out in the presence of 5 mmol/L UDP-glucuronic acid instead of NADPH, and the same operation is carried out thereafter. The dilution concentration and dilution solvent are changed as necessary.

## CCOc1cnc(C(=O)Nc2cc(-c3ccc(F)nc3)ccc2N)cn1 [Compound I-118]
[1]
  IC50 at 48 h: > 25 µM
[2]
  inhibition at up to 83.3 µM: 8%

## C[C@H](F)COc1cnc(C(=O)Nc2cc(-c3ccc(F)nc3)ccc2N)cn1 (racemic) [Compound I-125]
[3]
  remaining rate after reaction: 80.4%
[1]
  IC50 at 48 h: > 25 µM
[2]
  inhibition at up to 83.3 µM: 6%

## Cn1cc(-c2cnc(C(=O)Nc3nc(-n4cccc4)ccc3N)cn2)cn1 [Compound I-023]
[3]
  remaining rate after reaction: 95.3%
[1]
  IC50 at 48 h: > 25 µM
[2]
  inhibition at up to 83.3 µM: 8%

## N#Cc1ccc(C(=O)Nc2cc(-c3ccc(F)nc3)ccc2N)nc1 [Compound I-092]
[3]
  remaining rate after reaction: 103%
[1]
  IC50 at 48 h: > 25 µM
[2]
  inhibition at up to 83.3 µM: 6%

## Cn1cc(-c2cnc(C(=O)Nc3cc(-c4ccc(F)nc4)ccc3N)cn2)cn1 [Compound I-080]
[3]
  remaining rate after reaction: 84.8%
[1]
  IC50 at 48 h: > 25 µM
[2]
  inhibition at up to 83.3 µM: 7%

## Cn1cc(-c2ccc(N)c(NC(=O)c3cnc(C4CC4)cn3)c2)cn1 [Compound I-130]
[3]
  remaining rate after reaction: 92.9%
[1]
  IC50 at 48 h: > 25 µM

## Cn1cc(-c2cnc(C(=O)Nc3nc(-c4cccs4)ccc3N)cn2)cn1 [Compound I-017]
[3]
  remaining rate after reaction: 81.8%
[1]
  IC50 at 48 h: > 25 µM
[2]
  inhibition at up to 83.3 µM: 5%
